Measured values from patent US7166472B2, “Method for the identification of agents that inhibit or promote cataracts and uses thereof” (The General Hospital Corporation, priority 2000, dated 2007).

Assays:
[1] = Hydrogen peroxide assay (DCF fluorometric); type: biochemical; details: for hydrogen peroxide production: Cu(II) present, dark
Experimental: Hydrogen Peroxide Assay—The fluorometric assay for hydrogen peroxide is based on the dichlorofluorescein diacetate (DCF) method (Molecular Probes, Eugene, Oreg.). The DCF solution (5 mM) in 100% ethanol was deacetylated in the presence of 0.01 M NaOH for 30 minutes and neutralized. Horseradish peroxidase (200 U/ml) was then added and the DCF concentration adjusted to 200 μM in PBS. The reaction solutions were carried out in PBS, pH 7.4, in a 96-well format plate (total volume=300 μL/well) and contained a test compound (KYN, 3-HK, 3-HAA, ANA, or ASC, each at 10 μM), deacetylated DCF (20 μM), and Cu(II)-glycine (1 μM) as indicated, incubated at 37° C. for 60 minutes. […] Abolition of the reading by co-incubation with catalase (1000 U/ml) was used for establishing H2O2 specificity. The fluorescent readings were recorded by a Packard FLURORCOUNT™ fluorescent plate reader with a 485 nm excitation filter and 530 nm emission filter. Concentrations were determined by comparison to a standard curve using reagent grade hydrogen peroxide in CHELEX™ chelating ion exchanae resin-treated PBS buffer, pH 7.4.
Reactions were conducted in the absence of added Cu(II), in the presence of added glycine-complexed Cu(II) (1 μM), in the presence of added glycine-complexed Cu(II) (1 μM) and catalase (1000 U/ml), or with added glycine-complexed Cu(II) (1 μM) and the copper chelator triethylenetetramine (TETA, 200 μM).

[2] = Metal reduction assay, Cu(II) to Cu(I) (BC/BCA indicator); type: biochemical; details: test compound 10 μM, Cu(II)-glycine 25 μM, PBS pH 7.4, 37° C., dark, one hour
Experimental: Metal Reduction Assays—Assays were performed using a 96-well microtiter plate (Costar, Mass.). Test compounds from the kynurenine pathway (10 μM) or, as a positive control, ascorbic acid (ASC, 10 μM) were co-incubated with either Fe(III)-citrate (25 μM) and the Fe(II) indicator bathophenanthroline disulfonic acid (BP, 250 μM), or Cu(II)-glycine (25 μM) and the Cu(I) indicator bathocuproine disulfonic acid (BC) or bicinchoninic acid (BCA, 250 μM). Incubations were conducted in PBS, pH 7.4, at 37° C. in the dark for one hour. Absorbencies were then measured using a plate reader (SPECTRAmax Plus, Molecular Devices, CA) at the appropriate wavelengths: Fe(II)-BP complex at 535 nm (the known molar absorption coefficient, M535,=22140 M^−1 cm^−1), Cu(I)-BC complex at 483 nm, M483=12250 M^−1cm^−1), or Cu(I)-BCA complex at 562 nm, M562=7700 M^−1cm^−1). In control samples, absorbance from the metal ion and indicator in the absence of test compound and the absorbance of test compound in the presence of metal ions, but in the absence of indicator, were determined. The absorbencies from these controls were deducted from those obtained in the presence of the test compound, metal and indicator to yield the net absorbance (ΔA). Fe(II) or Cu(I) concentrations (μM) were calculated according to the formula: C(μM)=ΔA*10^6/Mλ.
The compounds comprising the kynurenine pathway (FIG. 1) were assayed for their ability to reduce […] and Cu(II) (FIG. 2A). […] Values represent the mean±SD for three independent measurements.

[3] = Cyclic voltammetry of kynurenine metabolites with Cu(II); type: physicochemical; details: metabolite 100 μM, cupric chloride 25 μM, PBS pH 7.4
Experimental: Cyclic Voltammetry—Cyclic voltammetry was performed at room temperature (22±2° C.) on ambient solutions using an EG&G PAR potentiostat, Model 273. The potentiostat was operated in Ramp Mode, generating a potential staircase waveform with a 0.25 mV step height. The potential window of +0.15 to −0.4V, in which Cu(I) is electroactive, but the metabolites are not, was scanned in both directions at a rate of 100 mV/sec. The current response was passed through a 5.3 Hz low pass filter. A minimum of three cycles were collected for each scan, ensuring the stability of the electrochemical response. The electrochemical cell consisted of an indium/tin oxide working electrode (Delta Technologies) with an active area of 0.32 cm^2, a platinum wire auxiliary electrode, and a Ag/AgCl (1 M KCl) reference electrode (Microelectrodes Inc.). Both the auxiliary and reference electrodes were positioned in the cell in close proximity to the working electrode. The working electrodes were pretreated with successive 10 minute sonications in Alconox (˜8 g/L), 95% ethanol, Milli-Q purified H2O (2×), and PBS (pH 7.4), followed by an overnight soak in PBS (pH 7.4). The ITO electrodes were subsequently “activated” immediately prior to use by successive cycling in PBS for three cycles in each of the following potential windows: +0.15 ? −0.4 V, +0.4 ? −0.4 V, and +1.0 ? −0.4 V. Cupric chloride (25 μM; Allied Chemical) was used as the Cu(II) source. Background voltammograms were obtained on each new electrode before testing the kynurenine pathway metabolites. PBS solutions of KYN, 3-HK, ANA, and 3-HAA (each at 100 μM) were separately scanned with and without added Cu(II) (25 μM). Each experiment also included a scan of Cu(II) (25 μM) in PBS without added test compound. All solutions were tested within minutes of being prepared. Each test was repeated to ensure the reproducibility of the results.
The voltammograms in FIGS. 3A–3D compare 3-HK and 3-HAA to their corresponding non-phenolic analogs, kynurenine (KYN) and anthranilic acid (ANA), in aqueous solutions of Cu(II) at pH 7.4. […] At potentials above +0.15 V, the metabolites undergo direct irreversible oxidation, a reaction that is not considered further here. Cyclic voltammetry of Cu(II) in PBS yielded a current response at ≈−100 mV due to reduction of the metal ion (scan “b” in each panel).

Nc1c(O)cccc1C(=O)CC(N)C(=O)O (stereo not shown) [3-HK, 3-hydroxykynurenine]
hydrogen peroxide generated relative to available Cu(II) [1]: approximately 3 fold
hydrogen peroxide generated ([1]; ambient gas conditions, CHELEX-treated PBS, FIG. 4C): approx. 3 μM
hydrogen peroxide production ([1]; ambient oxygen tension): 1.49 μM H2O2
hydrogen peroxide production ([1]; high oxygen tension): 1.84 μM H2O2
hydrogen peroxide production ([1]; low oxygen tension (continuous argon sparging)): 0.35 μM H2O2
reduction of Cu(II) [2]: 100%
Cu(II) reduction wave in presence of metabolite [3]: nearly abolished
